Test results reported in US12172946B2, “Compound containing diphenylmethane structure and use thereof” (GUANGZHOU TROJAN PHARMATEC LTD., priority 2019, dated 2024).

Test: solubility of the compound in common solvents
Type: physicochemical
Conditions: 25-30° C.; for solubility in DMF: N,N-dimethylformamide; for solubility in i-PrOAc: isopropyl acetate; for solubility in MTBE: methyl tert-butyl ether
Method: The solubility of the compound of the present invention in common solvents was investigated (25-30° C.), and the results are shown in Table 1. It can be seen from Table 1 that the compound of the present invention has good solubility in all of heptane, isopropyl acetate (i-PrOAc), methyl tert-butyl ether (MTBE) and N,N-dimethylformamide (DMF), and particularly, the solubility in N,N-dimethylformamide is much higher than Comparative Examples.

Compound | solubility in DMSO [%] | solubility in MeOH [%] | solubility in DMF [%] | solubility in Heptane [%] | solubility in i-PrOAc [%] | solubility in MTBE [%]
CCCCCCCCCCCCCOc1cc(C(=O)NCCOCCOc2ccc(C(O)(c3ccccc3)c3ccccc3)cc2)cc(OCCCCCCCCCCCCC)c1OCCCCCCCCCCCCC [DPA-032] | <1 | <1 | >40 | >10 | >10 | >10
CCCCCCCCCCCCCOc1cc(C(=O)NCCOCCOc2ccc(C(O)(c3ccccc3)c3ccccc3Cl)cc2)cc(OCCCCCCCCCCCCC)c1OCCCCCCCCCCCCC (stereo not drawn) [DPA-033] | <1 | <1 | >40 | >30 | >50 | >50
CCCCCCCCCCCCCOc1cc(C(=O)NCCOCCOc2ccc(C(O)(c3ccccc3)c3ccc(Cl)cc3)cc2)cc(OCCCCCCCCCCCCC)c1OCCCCCCCCCCCCC (stereo not drawn) [DPA-034] | <1 | <1 | >40 | >30 | >50 | >50
CC(C)CCCC(C)CCCC(C)CCCC(C)CCOc1ccc(C(N)c2ccc(OCCC(C)CCCC(C)CCCC(C)CCCC(C)C)cc2)cc1 (stereo not drawn) [REF-001, 4,4′-di(dihydrophytanyloxy)-benzhydrylamine, reference compound] | <1 | <1 | >0.1 | >50 | >100 | >100
CC(C)CCCC(C)CCCC(C)CCCC(C)CCOc1cc(COc2ccc(C(N)c3ccccc3)cc2)cc(OCCC(C)CCCC(C)CCCC(C)CCCC(C)C)c1OCCC(C)CCCC(C)CCCC(C)CCCC(C)C (stereo not drawn) [REF-002, reference compound] | <1 | <1 | >0.1 | >100 | >100 | >100
